Experimental data published in patent US6117645A, “Human LH-RH receptor expression cells and use thereof” (Takeda Chemical Industries, Ltd., priority 1994, dated 2000).

Molecular target: T1, human LH-RH receptor (Homo sapiens, UniProt P30968)
T1 construct: cell membrane fraction or whole cells
T1 sequence (P30968 1-328): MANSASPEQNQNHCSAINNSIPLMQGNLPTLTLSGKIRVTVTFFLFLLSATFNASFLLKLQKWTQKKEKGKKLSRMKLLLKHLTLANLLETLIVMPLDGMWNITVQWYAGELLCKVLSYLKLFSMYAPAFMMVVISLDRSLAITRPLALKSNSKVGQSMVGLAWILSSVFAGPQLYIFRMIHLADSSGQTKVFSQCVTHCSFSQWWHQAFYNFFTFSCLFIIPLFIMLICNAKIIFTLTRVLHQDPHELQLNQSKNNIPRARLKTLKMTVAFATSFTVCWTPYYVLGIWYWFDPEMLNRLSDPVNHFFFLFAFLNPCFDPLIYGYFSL
Experiment: [125I]-leuprorelin binding inhibition, CHO cell membrane fraction
Conditions: 2 μl of 2 mM compound in 60% DMSO added to 188 μl of 200 μg/ml membrane fraction with 10 μl of 3.6 nM [125I]-leuprorelin; 25° C., 60 minutes
Experimental: The human LH-RH receptor expression cells (10^9 cells) obtained in Example 2 were suspended in phosphate buffered saline containing 5 mM EDTA (PBS-EDTA), and centrifuged at 100×g for 5 minutes. To cell pellets, 10 ml of a cell homogenating buffer (10 mM NaHCO3, 5 mM EDTA, pH 7.5) was added, followed by homogenization with a Polytron homogenizer. After centrifugation at 400×g for 15 minutes, the supernatant was placed in an ultracentrifugal tube, and centrifuged at 100,000×g for 1 hour to obtain a cell membrane fraction precipitate. This precipitate was suspended in 2 ml of an assay buffer, and centrifuged at 100,000×g for 1 hour. The cell membrane fraction recovered as a precipitate was suspended in 20 ml of the assay buffer again. The suspension was dispensed and stored at -80° C. It was defrosted at every time of use. […]
Using the human LH-RH receptor expression CHO cell membrane fraction, reaction was conducted at 25° C. for 60 minutes. […] After the filtration, the radioactivity of [^125 I]-leuprorelin left on the filter was measured with a gamma-ray counter.
The binding inhibition rate of each sample to be tested was determined according to the following equation: [formula] wherein SB represents the radioactivity when the compound is added, TB represents the maximum binding radioactivity, and NSB represents the non-specific binding radioactivity.

CCOC(=O)c1cn(Cc2ccccc2OC)c2sc(-c3ccc(OC)cc3)c(C)c2c1=O [Reference Example 9]
inhibition at 2000 µM (stock): 67%
